One data set has as its system CHOP protein. Put plainly: Expression of the CHOP protein, Western blot. It counts as cell-based, human. Particulars: A172 tumour cells treated 6 hours at 5 μM and 10 μM, versus reference compound. The text has this:
(§1) To determine via which mechanisms of action compounds 8 and 9 could lead to slowing of cell proliferation or to cell death, the activation of two specific markers, the expression of the CHOP protein and phosphorylation of the histone H2AX on the serine site […] were monitored. The CHOP protein has pro-apoptotic properties (induction of cell death). Phosphorylation of the H2AX histone is a marker of DNA damage which leads to activation of p53, a protein having pro-apoptotic properties or the property of slowing cell proliferation.
(§2) In these experiments, the tumour cells A172 were treated for 6 hours with the compounds at two concentrations (5 μM and 10 μM). After the 6 hour treatment time, the cells were lysed and […] of soluble proteins were separated on 12% polyacrylamide gel. After migration, the proteins were transferred onto nitrocellulose using the Western blot technique. The proteins CHOP and H2AX were then detected using specific primary antibodies, themselves recognized by corresponding secondary antibodies whose peroxidase activity was identified using an ECL kit.
For orientation: A western blot detects proteins with antibodies after separation by electrophoresis.

A further data set has as its system A2780. Kind of data set: MTT test on A2780 ovarian cancer line. The format is cell-based. The note with it: MTT method.
A further data set concerns U87. Kind of data set: MTT test on U87 glioblastoma line. The format is cell-based. The note with it: MTT method.
A further data set relates to Fadu. Kind of data set: MTT test on Fadu head & neck cancer line. The format is cell-based. The note with it: MTT method. (Formazan colour is commonly taken as a measure of viable cells.)
The next data set has as its system Katto III. Put plainly: MTT test on Katto III pancreatic cancer line. It counts as cell-based. Particulars: MTT method, Katto III gastric cancer.
The test system of another data set is N2A. Kind of data set: MTT test on N2A neuroblastoma line. The format is cell-based. Particulars: MTT method.
In another data set the test system is HCT-116 cells. Kind of data set: MTT test on HCT116 colon cancer cells. The format is cell-based, human. Particulars: MTT method, Table 2.
In another data set the test system is 3LL. Put plainly: MTT test on 3LL lung cancer line. The format is cell-based. The note with it: MTT method.
The subject of another data set is HCT116 cells. Kind of data set: Cell cycle profile by FACS after propidium iodide staining. It counts as cell-based, human. Particulars: HCT116 cells treated 48 h at 1 μM and 5 μM. An excerpt: The effect of compounds 8 and 9 on the cell profile was studied using the FACS technique (Fluorescence Activated Cell Sorter i.e. the association of a flow cytometer and a cell sorter) after staining the cells with propidium iodide to visualize the quantity of cell DNA. These analyses allow visualization of the cell cycle phase at which the cells accumulate subsequent to treatment with the compounds of the invention, and possibly whether cell death by apoptosis has been induced.
In this experiment, the HCT116 cells were treated for 48 h at the indicated doses (1 μM and 5 μM). After a treatment time of 48 h, the cells were washed three times with PBS (phosphate buffer saline) and fixed in 90% ethanol. The cells were then stained with a solution of propidium iodide/RNase. The stained cells (10 000 per sample) were then counted using a FACScan flow cytometer and CellQuest software (Becton Dickinson) to determine the DNA content and the profile of the cell cycle.
In general terms: In flow cytometry, cells or beads pass a laser one at a time.

The next data set deals with A-172 cells. Put plainly: MTT test on A172 glioblastoma cells. The format is cell-based, human. Particulars: 48 h treatment, A-172 glioblastoma cells, Table 1.
A further data set concerns histone H2AX. Put plainly: Phosphorylation of histone H2AX, Western blot. The note with it: A172 tumour cells treated 6 hours at 5 μM and 10 μM, versus reference compound. The format is cell-based, human.
Source text: as §1, §2

Data set [1] concerns melanoma model F10B16 implanted in Black-6 mice. Put plainly: Tumour growth in in vivo melanoma model F10B16. The note with it: F10B16 melanoma in Black-6 mice, twice a week at 7.5 μmol/kg. An excerpt: To determine the anti-cancer potential of these molecules, we analyzed the effects of compound 8 and compound 9 on tumour growth, using the in vivo melanoma model F10B16 implanted in Black-6 mice. […] The chronic treatments (twice a week at 7.5 μmol/kg) in mice having tumours led to a reduction in tumour growth. This reduction in tumour growth (treated tumour volume/non-treated tumour volume: T/C) was of the order of 80% for compound 8 and 60% for compound 9 (see Table 4 and FIGS. 6 and 7).
In these experiments, the […] cells (200 000 cells) were implanted sub-cutaneously in Black-6 mice aged 8 weeks. Groups of 6 mice per condition were formed. The treatments were started when the tumours were palpable with a volume of the order of 100 mm^3.

The subject of the next data set is Black-6 mice. The note with it: Black-6 mice aged 8 weeks, single dose, intraperitoneal, followed up over 15 days.

Experimental findings from patent US20120329767A1, “Methods and Compositions for Treating Cancer” (priority 2010, published 2012) are described below.

Like-named read-outs stand apart in the source and are kept apart here.

Description for A-172 cells: Cisplatin was chosen as cytotoxic agent for comparison. As first approach, a MTT test was used to measure the activity of a mitochondrial enzyme which gives an estimation of the number of cells.
The experiments were performed under a vertical laminar flow hood. The cell growth medium was composed of DMEM (Dulbecco's Modified Eagle's Medium), HEPES, 10% FCS (Foetal Calf Serum), 5% PS (Penicillin, Streptomycin) and was stored at +4° C., and PBS (Phosphate Buffer Saline, pH=7.4). […] MTT (4,5-dimethylthiazol-2-diphenyltetrazolium bromide) is a yellow solid produced by Aldrich. It was placed in sterile aqueous solution at a concentration of 5 mg/ml and stored at +4° C. It was diluted to 10% in the cell culture medium when used as staining agent of the living cells.
(§3) When they were sufficiently numerous (70% confluence) they were washed in PBS at ambient temperature then mixed with 1.5 mL of Trypsin-EDTA to detach them from the Petri dish. […] After 48 hours, the medium was replaced by a MTT solution at 37° in the medium, which was placed in the incubator for at least one hour or until violet crystals derived from the complexing of MTT were formed quantitatively at the bottom of each well. […] The optical density of the solutions obtained was read off. […]
Description for HCT-116 cells: A human glioblastoma line (A172) and a colon cancer line (HCT116) were used to test the cytostatic effects of the compounds according to the invention. Cisplatin was chosen as cytotoxic agent for comparison. As first approach, a MTT test was used to measure the activity of a mitochondrial enzyme which gives an estimation of the number of cells.
The experiments were performed under a vertical laminar flow hood. The cell growth medium was composed of DMEM (Dulbecco's Modified Eagle's Medium), HEPES, 10% FCS (Foetal Calf Serum), 5% PS (Penicillin, Streptomycin) and was stored at +4° C., and PBS (Phosphate Buffer Saline, pH=7.4). […] MTT (4,5-dimethylthiazol-2-diphenyltetrazolium bromide) is a yellow solid produced by Aldrich. […]
as §3
The IC50 values (μM) were determined for each of the lines and compared with the values obtained for a reference ruthenium derived compound.

Turning to `CC#[N+][Ru-4]123([c]4c(cc(C(=O)OC)cc4-c4cccc[n+]41)-c1cccc[n+]12)[n+]1cccc2ccc4ccc[n+]3c4c21.F[P-](F)(F)(F)(F)F` [Compound (8)], the “Induction of expression of the CHOP protein” value in the data set with CHOP protein is listed as “more efficient”. Also, the concentration for half-maximal inhibition (IC50) fell in the range of 1000 to 2000 nM with A2780; 1000 to 2500 nM with U87; 1000 to 2000 nM in the data set on Fadu; 1000 to 2000 nM in the data set on Katto III; 1000 to 2000 nM in the data set on N2A; 1000 to 2000 nM in the data set with HCT-116 cells. For the same compound, the values for the IC50 in the data set on 3LL and in the data set with A-172 cells were 1000 to 2000 nM and 1500 to 1900 nM, respectively. For the same compound, the “Profile of the cell cycle” value with HCT116 cells is recorded as “induce a halt in the cell cycle at phase G1 or cell death”. In the data set with histone H2AX, the “Phosphorylation of the histone H2AX on the serine site 137” value is reported as “more efficient”. The “T/C (reduction in tumour growth; treated tumour volume/non-treated tumour volume)” value in [1] (listed as Compound 8) was 81%; in data set [1] (listed as compound 8), roughly 80%. The compound also gave an LD50 with Black-6 mice of 22.5 µmol/kg.
`CC#[N+][Ru-4]123([c]4c(cc(C)cc4-c4cccc[n+]41)-c1cccc[n+]12)[n+]1cccc2ccc4ccc[n+]3c4c21.F[P-](F)(F)(F)(F)F` [Compound (9)]: the “Induction of expression of the CHOP protein” value in the data set on CHOP protein is “more efficient”. For the same compound, the half-inhibitory concentration (IC50) with A2780 lay in the range of 100 to 1000 nM; in the data set on U87, 1000 to 2000 nM; with Fadu, 100 to 1000 nM; with Katto III, 100 to 1000 nM; with N2A, 100 to 1000 nM; in the data set on HCT-116 cells, 100 to 1000 nM. Moreover, the IC50 lay in the range of 100 to 1000 nM with 3LL and 600 to 1000 nM with A-172 cells. In addition, the “Profile of the cell cycle” value with HCT116 cells was “induce a halt in the cell cycle at phase G1 or cell death”. Further, the “Phosphorylation of the histone H2AX on the serine site 137” value in the data set on histone H2AX is listed as “more efficient”. Besides, the “T/C (reduction in tumour growth; treated tumour volume/non-treated tumour volume)” value was 58% in data set [1] (listed as Compound 9) and roughly 60% in data set [1] (listed as compound 9). Moreover, the LD50 in the data set on Black-6 mice (listed as Compound 9) and in the data set on Black-6 mice (listed as compound 9) was greater than 60 µmol/kg throughout.

As usually defined, the IC50 is the point on the concentration scale where inhibition reaches its midpoint. The LD50 is the dose at which mortality reaches 50%. High values mean lower toxicity, low ones greater toxicity.
